Laboratory results: patent US20070269843A1, “Diagnostic Assays That Use Mycobacteriophages” (priority 2004, published 2007)
“And” between values parts separate entries of the source, which are not always exact repeats. Equal values may be shown once. Where a name gives a salt, the structure may show the parent alone. Read-outs that look alike come from different tables or passages of the source.

Experiments:
[1] = cited from earlier work
[2] = system: Mycobacterium tuberculosis ATCC 27294; test: FASTPlaqueTB (FPTB) plaque assay after timed exposure of M. tuberculosis to CB-18 (Example 1); format: cell-based; conditions: for Plaque formation following infection in Tris buffer and no pre-culture / Plaque formation following overnight pre-culture in FPTB nutrient broth: duplicates a, b
Procedure: In an effort to establish the effect of exposure to CB-18 on the M. tuberculosis type strain ATCC 27294, and any relationship of such an effect to time, the following experiment was performed using the FASTPlaqueTB™ (FPTB) assay manufactured by Biotec Laboratories Ltd (Ipswich, Suffolk, U.K.): A 0.5 MacFarland stock of M. tuberculosis was manufactured as described by Thornton, C. G., et al, Jour. Clin. Microbiol. 36:2004-2013 (1998), and a 1 ml portion were transferred to a 50 ml conical tubes containing 50 mM Tris-HCl pH 7.5 @ 25° C., 66 mM NaCl, 1 mM CB-18, and 0.025% N-acetyl-L-cysteine (NALC). From this tube was taken duplicate 500 μl aliquots at 0, 30, 60, 120, and 180 minutes and immediately serially diluted 400-fold to form two dilution series. In the first series (FIG. 1a), serial dilutions were made in nutrient broth (i.e., FPTB broth) provided by the manufacturer. In the second series (FIG. 1b), serial dilutions were made in a 50 mM Tris-HCl pH 7.5 @ 25° C., 66 mM NaCl buffer that had been supplemented with calcium chloride (CaCl2) to a final concentration of 2 mM.
The first series of time point-dilutions were then incubated at 37° C. overnight in FPTB broth prior to being assayed with the FPTB plaque assay. The second series of time point-dilutions were immediately subjected to analysis using the FPTB plaque assay.

[3] = system: Mycobacterium tuberculosis ATCC 27294; test: FPTB plaque assay with CB-18 present during infection (Example 2); format: cell-based; conditions: for Plaque formation following infection in Tris buffer and no pre-culture / Plaque formation following overnight pre-culture in FPTB nutrient broth: duplicates a, b; for Concentration present during infection that does not interfere with the assay: M. tuberculosis ATCC 27294
M. tuberculosis = test: FPTB plaque assay after exposure to CB-18 with carry-over into the infection buffer (Example 3); format: cell-based, Mycobacterium tuberculosis; conditions: 1 mM CB-18, 90 minutes at 37° C.; replicates 1-3, tubes a, b
Procedure: To examine the effects of both exposing M. tuberculosis to CB-18, and having CB-18 carried over into the infection buffer, the following experiment was performed: A 0.5 MacFarland stock of M. tuberculosis was manufactured as described by Thornton, C. G., et al, Jour. Clin. Microbiol. 36:2004-2013 (1998), and a 0.5 ml portions were transferred to quadruplicate 50 ml conical tubes (FIG. 3). One pair of tubes simply contained 50 mM Tris-HCl pH 7.5 @ 25° C., 66 mM NaCl, and 0.025% NALC, while the other pair of tubes contained the same buffer supplemented with 1 mM CB-18. All tubes were incubated for 90 minutes at 37° C. and then diluted with sterile water to a final volume of 50 ml. In those tubes without CB-18 present, duplicate 250 μl portions were added directly to 1 ml of FPTB nutrient broth. From those tubes that contained CB-18, triplicate 250 μl portions were added to 50 mM Tris-HCl pH 7.5 @ 25° C., 66 mM NaCl, 2 mM CaCl2 buffer. All tubes were then immediately subjected to analysis using the FPTB plaque assay (i.e., the plaque assay was performed without pre-culture).

[4] = system: M. tuberculosis type strain ATCC 27294; conditions: cited from earlier work
[5] = system: mycobacteriophage D-29 in M. tuberculosis; conditions: cited from earlier work
[6] = 1 mM CB-18, time of exposure 0 min
[7] = 1 mM CB-18, time of exposure 30 min
[8] = 1 mM CB-18, time of exposure 60 min
[9] = 1 mM CB-18, time of exposure 120 min
[10] = 1 mM CB-18, time of exposure 180 min

NC(=O)CNCCS(=O)(=O)O [ACES, N-(2-Acetamido)-2-aminoethanesulfonic acid]
pKa [1]: 6.78

NC(=O)CN(CC(=O)O)CC(=O)O [ADA, N-(2-Acetamido)iminodiacetic acid]
pKa [1]: 6.59

CCCCCCCCCCCCCCCCCC[N+](C)(C)CCCC(=O)[O-] [CB-18, N-(3-carboxypropyl)-N,N-dimethyl-1-octadecanaminium, inner salt]
Plaque formation following infection in Tris buffer and no pre-culture [2, 6]: 132 and 121
Plaque formation following overnight pre-culture in FPTB nutrient broth [2, 6]: >300
Plaque formation following infection in Tris buffer and no pre-culture [2, 7]: 145 and 167
Plaque formation following overnight pre-culture in FPTB nutrient broth [2, 7]: >300
Plaque formation following infection in Tris buffer and no pre-culture [2, 8]: 100 and 90
Plaque formation following overnight pre-culture in FPTB nutrient broth [2, 8]: >300
Plaque formation following infection in Tris buffer and no pre-culture [2, 9]: 155 and 140
Plaque formation following overnight pre-culture in FPTB nutrient broth [2, 9]: >300
Plaque formation following infection in Tris buffer and no pre-culture [2, 10]: 213 and 221
Plaque formation following overnight pre-culture in FPTB nutrient broth [2, 10]: >300
Effect of exposure on D-29 mycobacteriophage plaque assay ([2]; 1 mM CB-18 for 30, 60, 120, and 180 minutes): no deleterious effects
Plaque formation following infection in Tris buffer and no pre-culture ([3]; CB-18 5 μg/ml present during infection): 171 and 191
Plaque formation following overnight pre-culture in FPTB nutrient broth ([3]; CB-18 5 μg/ml): >300
Plaque formation following infection in Tris buffer and no pre-culture ([3]; CB-18 10 μg/ml present during infection): 204 and 186
Plaque formation following overnight pre-culture in FPTB nutrient broth ([3]; CB-18 10 μg/ml): >300
Plaque formation following infection in Tris buffer and no pre-culture ([3]; CB-18 20 μg/ml present during infection): 181 and 198
Plaque formation following overnight pre-culture in FPTB nutrient broth ([3]; CB-18 20 μg/ml): >300
Plaque formation following overnight pre-culture in FPTB nutrient broth ([3]; CB-18 40 μg/ml): >300
Concentration present during infection that does not interfere with the assay [3]: ≤ 20 µg/mL
Concentration present during infection that does not interfere with the assay ([3]; conversion of 20 μg/ml): ≤ 52 µM
Plaque formation following processing in CB-18, no pre-culture, and infection in Tris-CaCl2 buffer (M. tuberculosis): >300
Growth characteristics in culture media ([4]; CB-18 present at 20 μg/ml in the culture media): significantly affected
Tuberculocidal activity ([4]; time-dependent killing): has tuberculocidal activity

O=S(=O)(O)CCCCN1CCN(CCO)CC1 [HEPBS, N-(2-Hydroxyethyl)piperazine-N′-(4-butanesulfonic acid)]
pKa [1]: 8.30

O=S(=O)(O)CCCCN1CCOCC1 [MOBS, 4-(N-Morpholino)butanesulfonic acid]
pKa [1]: 7.60

O=S(=O)(O)CCN1CCN(CCS(=O)(=O)O)CC1 [PIPES, piperazine-1,4-bis(2-ethanesulfonic acid)]
pKa [1]: 6.76

O=S(=O)(O)CC(O)CN1CCN(CC(O)CS(=O)(=O)O)CC1 (stereo not shown) [POPSO, piperazine-N,N′-bis(2-hydroxypropanesulfonic acid)]
pKa [1]: 7.80

CCCCCCCC/C=C\CCCCCCCC(=O)OCCOCC(OCCO)C1OCC(OCCO)C1OCCO (stereo not shown) [Tween 80]
Concentration above which propagation of mycobacteriophage D-29 in M. tuberculosis is interfered with [5]: above 0.0012%
Concentration above which propagation of mycobacteriophage D-29 in M. tuberculosis is interfered with ([5]; printed as conversion of […]): > 1 EM
